Test results as given in ChEMBL document CHEMBL5257124, “Design, synthesis and biological evaluation of novel indole-piperazine derivatives as antibacterial agents” (Bioorg Med Chem Lett, 2023).
Converted amounts (≈) assume the structure as drawn. The source made the active and inactive calls. The calls are words filed in the database; no cut-off is given here.

Key:
[1] = test system: Ralstonia solanacearum; experiment: Antibacterial activity against Ralstonia solanacearum assessed as bacterial growth inhibition; assay type: functional
[2] = test system: Staphylococcus aureus; experiment: Antibacterial activity against methicillin resistant Staphylococcus aureus ATCC 33591 assessed as reduction in bacterial growth; assay type: functional
[3] = test system: Escherichia coli; experiment: Antibacterial activity against Escherichia coli ATCC 25922 assessed as reduction in bacterial growth; assay type: functional
[4] = test system: Pseudomonas syringae; experiment: Antibacterial activity against Pseudomonas syringae pv. actinidiae assessed as bacterial growth inhibition; assay type: functional
[5] = test system: Staphylococcus aureus; experiment: Antibacterial activity against Staphylococcus aureus ATCC 25923 assessed as reduction in bacterial growth; assay type: functional
[6] = test system: Bacillus cereus; experiment: Antibacterial activity against Bacillus cereus assessed as reduction in bacterial growth; assay type: functional
[7] = test system: Staphylococcus aureus; experiment: Antibacterial activity against methicillin resistant Staphylococcus aureus assessed as reduction in bacterial growth at 1 times MIC by time kill assay; assay type: functional, organism-based
[8] = test system: Staphylococcus aureus; experiment: Bactericidal activity against Staphylococcus aureus ATCC 25923 assessed as reduction in bacterial growth; assay type: functional
[9] = test system: Staphylococcus aureus; experiment: Antibacterial activity against methicillin resistant Staphylococcus aureus assessed as reduction in bacterial growth at 16 microg/ml measured for 2 hrs; assay type: functional; conditions: dose 16 µg/ml
[10] = test system: Escherichia coli; experiment: Bactericidal activity against Escherichia coli ATCC 25922 assessed as reduction in bacterial growth; assay type: functional
[11] = test system: Staphylococcus aureus; experiment: Antibacterial activity against methicillin resistant Staphylococcus aureus assessed as reduction in bacterial growth at 8 times MIC measured at 24 hrs by time kill assay; assay type: functional, organism-based
[12] = test system: Staphylococcus aureus; experiment: Antibacterial activity against methicillin resistant Staphylococcus aureus assessed as reduction in bacterial growth at 8 microg/ml measured for 2 hrs; assay type: functional; conditions: dose 8 µg/ml
[13] = test system: Staphylococcus aureus; experiment: Drug resistance against Staphylococcus aureus assessed as fold increase in MIC measured after 19 passaging for 19 days; assay type: functional; conditions: time 19 day
[14] = test system: PC-12; experiment: Cytotoxicity against rat PC12 cells assessed as inhibition of cell growth at 20 to 50 microg/ml measured for 24 hrs by MTT assay; assay type: toxicity, cell-based; conditions: pc-12, 24 h, dose 20-50 µg/ml
[15] = test system: BV-2; experiment: Cytotoxicity against mouse BV-2 cells assessed as inhibition of cell growth at 20 to 50 microg/ml measured for 24 hrs by MTT assay; assay type: toxicity, cell-based; conditions: bv-2, 24 h, dose 20-50 µg/ml
[16] = test system: Staphylococcus aureus; experiment: Bactericidal activity against methicillin resistant Staphylococcus aureus ATCC 33591 assessed as reduction in bacterial growth; assay type: functional
[17] = test system: Staphylococcus aureus; experiment: Antibacterial activity against methicillin resistant Staphylococcus aureus assessed as reduction in bacterial growth at 2 times MIC measured at 24 hrs by time kill assay; assay type: functional; parameters: scale not given: the % may be the effect or the level left
[18] = test system: Staphylococcus aureus; experiment: Antibacterial activity against methicillin resistant Staphylococcus aureus assessed as reduction in bacterial growth at 4 times MIC measured at 24 hrs by time kill assay; assay type: functional; parameters: scale not given: the % may be the effect or the level left
[19] = target: Histone deacetylase 1 (Homo sapiens, UniProt Q13547); experiment: Inhibition of full length C-terminal His/FLAG tagged human recombinant HDAC1 (1 to 482 residues) expressed in baculovirus-infected Sf9 cells using RHK-K(Ac)-AMC as substrate incubated for 2 hrs
Sequence of Histone deacetylase 1 (Q13547 whole entry, the tested form may be a part): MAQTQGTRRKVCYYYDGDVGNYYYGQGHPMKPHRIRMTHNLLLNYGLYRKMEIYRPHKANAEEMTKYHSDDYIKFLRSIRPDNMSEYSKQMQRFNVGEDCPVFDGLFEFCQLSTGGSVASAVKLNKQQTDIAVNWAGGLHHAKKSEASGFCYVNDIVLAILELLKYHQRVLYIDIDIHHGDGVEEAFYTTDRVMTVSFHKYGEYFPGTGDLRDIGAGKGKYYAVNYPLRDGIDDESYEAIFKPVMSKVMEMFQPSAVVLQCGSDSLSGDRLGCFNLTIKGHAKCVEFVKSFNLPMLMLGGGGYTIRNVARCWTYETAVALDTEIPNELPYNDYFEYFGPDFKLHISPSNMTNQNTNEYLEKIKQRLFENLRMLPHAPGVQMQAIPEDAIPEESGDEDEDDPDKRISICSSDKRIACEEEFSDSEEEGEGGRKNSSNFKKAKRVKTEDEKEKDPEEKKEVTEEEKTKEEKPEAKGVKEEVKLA

Compound	MIC [1] [µg/mL]	MIC [2] [µg/mL]	MIC [3] [µg/mL]	MIC [4] [µg/mL]	MIC [5] [µg/mL]	MIC [6] [µg/mL]	Activity [7]	MBC [8] [µg/mL]	PAE [9] [h]	MBC [10] [µg/mL]	Activity [11]	PAE [12] [h]	fold change (FC) [13]	Activity [14]	Activity [15]	MBC [16] [µg/mL]	Activity [17] [%]	Activity [18] [%]	IC50 [19] [nM]
Clc1ccc(CN2CCN(Cc3c[nH]c4ccc(Cl)cc34)CC2)c(Cl)c1	16 (≈ 39.1 µM)	8 (≈ 19.6 µM)	16 (≈ 39.1 µM)	32 (≈ 78.3 µM)	8 (≈ 19.6 µM)	8 (≈ 19.6 µM)	–	–	–	–	–	–	–	–	–	–	–	–	–
Cn1cc(CN2CCN(Cc3ccc(C(F)(F)F)cc3N3CCCC3)CC2)c2cc(F)ccc21	32 (≈ 67.4 µM)	8 (≈ 16.9 µM)	32 (≈ 67.4 µM)	32 (≈ 67.4 µM)	8 (≈ 16.9 µM)	8 (≈ 16.9 µM)	–	–	–	–	–	–	–	–	–	–	–	–	–
COc1ccc2[nH]cc(CN3CCN(Cc4ccc(C(F)(F)F)cc4N4CCCC4)CC3)c2c1	16 (≈ 33.9 µM)	8 (≈ 16.9 µM)	32 (≈ 67.7 µM)	16 (≈ 33.9 µM)	16 (≈ 33.9 µM)	16 (≈ 33.9 µM)	–	–	–	–	–	–	–	–	–	–	–	–	–
Cn1cc(CN2CCN(Cc3ccc(Cl)cc3Cl)CC2)c2cc(Cl)ccc21	8 (≈ 18.9 µM)	4 (≈ 9.46 µM)	16 (≈ 37.8 µM)	8 (≈ 18.9 µM)	4 (≈ 9.46 µM)	4 (≈ 9.46 µM)	Active	8 (≈ 18.9 µM)	2.21	16 (≈ 37.8 µM)	Active	1.6	<4	Non-Toxic	Non-Toxic	8 (≈ 18.9 µM)	–	–	–
Clc1ccc(CN2CCN(Cc3c[nH]c4ccc(Br)cc34)CC2)c(Cl)c1	8 (≈ 17.7 µM)	4 (≈ 8.83 µM)	16 (≈ 35.3 µM)	16 (≈ 35.3 µM)	4 (≈ 8.83 µM)	4 (≈ 8.83 µM)	–	8 (≈ 17.7 µM)	2.91	16 (≈ 35.3 µM)	–	1.62	<4	Non-Toxic	Non-Toxic	4 (≈ 8.83 µM)	99.5	99.9	–
FC(F)(F)c1ccc(CN2CCN(Cc3c[nH]c4ccc(Cl)cc34)CC2)c(N2CCCC2)c1	8 (≈ 16.8 µM)	4 (≈ 8.39 µM)	16 (≈ 33.5 µM)	8 (≈ 16.8 µM)	4 (≈ 8.39 µM)	4 (≈ 8.39 µM)	–	8 (≈ 16.8 µM)	0.61	32 (≈ 67.1 µM)	Active	0.36	–	Non-Toxic	Non-Toxic	8 (≈ 16.8 µM)	–	–	–
GENTAMICIN	16	> 128	4	8	4	8	–	8	–	4	–	–	–	–	–	> 128	–	–	–
Cn1cc(CN2CCN(Cc3ccc(Cl)cc3Cl)CC2)c2cc(Br)ccc21	32 (≈ 68.5 µM)	4 (≈ 8.56 µM)	16 (≈ 34.2 µM)	16 (≈ 34.2 µM)	8 (≈ 17.1 µM)	8 (≈ 17.1 µM)	–	16 (≈ 34.2 µM)	–	16 (≈ 34.2 µM)	–	–	–	–	–	8 (≈ 17.1 µM)	–	–	–
N#Cc1ccc2[nH]cc(CN3CCN(Cc4ccc(C(F)(F)F)cc4N4CCCC4)CC3)c2c1	128 (≈ 274 µM)	16 (≈ 34.2 µM)	128 (≈ 274 µM)	128 (≈ 274 µM)	16 (≈ 34.2 µM)	16 (≈ 34.2 µM)	–	–	–	–	–	–	–	–	–	–	–	–	–
Cn1cc(CN2CCN(Cc3ccc(C(F)(F)F)cc3N3CCCC3)CC2)c2cc([N+](=O)[O-])ccc21	128 (≈ 255 µM)	128 (≈ 255 µM)	128 (≈ 255 µM)	128 (≈ 255 µM)	128 (≈ 255 µM)	128 (≈ 255 µM)	–	–	–	–	–	–	–	–	–	–	–	–	–
Cn1cc(CN2CCN(Cc3ccc(C(F)(F)F)cc3N3CCCC3)CC2)c2cc(C#N)ccc21	32 (≈ 66.4 µM)	16 (≈ 33.2 µM)	32 (≈ 66.4 µM)	32 (≈ 66.4 µM)	16 (≈ 33.2 µM)	16 (≈ 33.2 µM)	–	–	–	–	–	–	–	–	–	–	–	–	–
Cn1cc(CN2CCN(Cc3ccc(Cl)cc3Cl)CC2)c2cc([N+](=O)[O-])ccc21	32 (≈ 73.8 µM)	8 (≈ 18.5 µM)	64 (≈ 148 µM)	64 (≈ 148 µM)	8 (≈ 18.5 µM)	8 (≈ 18.5 µM)	–	–	–	–	–	–	–	–	–	–	–	–	–
FC(F)(F)c1ccc(CN2CCN(Cc3c[nH]c4ccc(Br)cc34)CC2)c(N2CCCC2)c1	32 (≈ 61.4 µM)	8 (≈ 15.3 µM)	32 (≈ 61.4 µM)	32 (≈ 61.4 µM)	8 (≈ 15.3 µM)	8 (≈ 15.3 µM)	–	16 (≈ 30.7 µM)	–	32 (≈ 61.4 µM)	–	–	–	–	–	16 (≈ 30.7 µM)	–	–	–
Cn1cc(CN2CCN(Cc3ccc(Cl)cc3Cl)CC2)c2cc(F)ccc21	32 (≈ 78.8 µM)	8 (≈ 19.7 µM)	32 (≈ 78.8 µM)	32 (≈ 78.8 µM)	8 (≈ 19.7 µM)	8 (≈ 19.7 µM)	–	–	–	–	–	–	–	–	–	–	–	–	–
Fc1ccc2[nH]cc(CN3CCN(Cc4ccc(Cl)cc4Cl)CC3)c2c1	32 (≈ 81.6 µM)	8 (≈ 20.4 µM)	32 (≈ 81.6 µM)	32 (≈ 81.6 µM)	8 (≈ 20.4 µM)	8 (≈ 20.4 µM)	–	–	–	–	–	–	–	–	–	–	–	–	–
O=[N+]([O-])c1ccc2[nH]cc(CN3CCN(Cc4ccc(Cl)cc4Cl)CC3)c2c1	32 (≈ 76.3 µM)	8 (≈ 19.1 µM)	32 (≈ 76.3 µM)	32 (≈ 76.3 µM)	8 (≈ 19.1 µM)	8 (≈ 19.1 µM)	–	–	–	–	–	–	–	–	–	–	–	–	–
Cn1cc(CN2CCN(Cc3ccc(Cl)cc3Cl)CC2)c2cc(C#N)ccc21	16 (≈ 38.7 µM)	8 (≈ 19.4 µM)	32 (≈ 77.4 µM)	32 (≈ 77.4 µM)	8 (≈ 19.4 µM)	8 (≈ 19.4 µM)	–	–	–	–	–	–	–	–	–	–	–	–	–
Cn1cc(CN2CCN(Cc3ccc(C(F)(F)F)cc3N3CCCC3)CC2)c2cc(Br)ccc21	16 (≈ 29.9 µM)	8 (≈ 14.9 µM)	32 (≈ 59.8 µM)	16 (≈ 29.9 µM)	16 (≈ 29.9 µM)	16 (≈ 29.9 µM)	–	–	–	–	–	–	–	–	–	–	–	–	–
Cn1cc(CN2CCN(Cc3ccc(C(F)(F)F)cc3N3CCCC3)CC2)c2cc(Cl)ccc21	64 (≈ 130 µM)	64 (≈ 130 µM)	64 (≈ 130 µM)	64 (≈ 130 µM)	32 (≈ 65.2 µM)	32 (≈ 65.2 µM)	–	–	–	–	–	–	–	–	–	–	–	–	–
O=C1CN(Cc2ccc(C(=O)NO)cc2)C(=O)[C@H](Cc2c[nH]c3ccccc23)N1	–	–	–	–	–	–	–	–	–	–	–	–	–	–	–	–	–	–	405
Fc1ccc2[nH]cc(CN3CCN(Cc4ccc(C(F)(F)F)cc4N4CCCC4)CC3)c2c1	128 (≈ 278 µM)	8 (≈ 17.4 µM)	128 (≈ 278 µM)	128 (≈ 278 µM)	16 (≈ 34.7 µM)	8 (≈ 17.4 µM)	–	–	–	–	–	–	–	–	–	–	–	–	–
O=[N+]([O-])c1ccc2[nH]cc(CN3CCN(Cc4ccc(C(F)(F)F)cc4N4CCCC4)CC3)c2c1	32 (≈ 65.6 µM)	16 (≈ 32.8 µM)	32 (≈ 65.6 µM)	32 (≈ 65.6 µM)	16 (≈ 32.8 µM)	16 (≈ 32.8 µM)	–	–	–	–	–	–	–	–	–	–	–	–	–
N#Cc1ccc2[nH]cc(CN3CCN(Cc4ccc(Cl)cc4Cl)CC3)c2c1	32 (≈ 80.1 µM)	8 (≈ 20 µM)	32 (≈ 80.1 µM)	32 (≈ 80.1 µM)	16 (≈ 40.1 µM)	8 (≈ 20 µM)	–	–	–	–	–	–	–	–	–	–	–	–	–
